# Measured values taken from patent US8841460B2, “Tunable phenylacetylene hosts” (State of Oregon, acting by and through the State Board of …, priority 2011, dated 2014).
# Tests used:
# [1] = Absorption/fluorescence response upon addition of TFA; settings: reversed by aqueous base
# Text: The absorption spectra of compounds 6-8 and 10 are dominated by a characteristic pattern consisting of three peaks. There is a lack of significant spectral changes associated with conversion of diamide 8 to disulfide 10, which is not unexpected, as overall conjugation remains limited by the methylene spacer.
# [2] = Photoluminescence quantum yield and Stokes shift in MeCN; type: physicochemical
# Experimental: This example describes general materials and methods used in the synthesis and characterization of exemplary host compounds. All solvents were dried over 3 Å molecular sieves unless otherwise stated. THF, Et3N, and CH2Cl2 were respectively distilled from potassium metal and CaH2 prior to use. All other materials were obtained from TCI-America, Sigma-Aldrich, Acros and Strem and used as received. ^1H and ^13C NMR spectra were recorded using a Varian Inova 300 (^1H 299.95 MHz, ^13C 75.43 MHz) or Inova 500 (^1H 500.10 MHz, ^13C 125.75 MHz) spectrometer. Chemical shifts (δ) expressed as ppm downfield from tetramethylsilane using either the residual solvent peak as an internal standard (CDCl3 ^1H, 7.27 ppm) or using CDCl3 spiked with 1% […] for the ^1H NMR spectra. For the ^13C NMR spectra the middle CDCl3 peak (δ 77.00 ppm) was used as the internal standard. Signal patterns are indicated as b, broad; s, singlet; d, doublet; t, triplet; m, multiplet. Coupling constants (J) are given in hertz. UV-Vis spectra were recorded using a Hewlett-Packard 8453 spectrophotometer and extinction coefficients are expressed in M^−1 cm^−1. Mass spectra were recorded using an Agilent 1100 Series LC/MSD. Emission spectra were recorded on a Hitachi F-4500 fluorescence spectrophotometer. Melting points were determined with a Meltemp II apparatus or a TA Instruments DSC 2920 Modulated DSC. […]
Structure (SMILES),spectral change upon addition of TFA [1],Quantum Yield (PLQY) [2] [%],Stokes Shift [2] [cm⁻¹]
CC(C)(C)c1ccc2c(c1)C#Cc1cccc(n1)C#Cc1cc(C(C)(C)C)ccc1NC(=O)CSSCC(=O)N2 [disulfide 10],conversion from a colorless solution with purple fluorescence to a deep yellow solution with yellow fluorescence,,
"CC(C)(C)c1ccc(N)c(C#Cc2cccc(C#Cc3cc(C(C)(C)C)ccc3N)n2)c1 [Dianiline 6, 2,2′-(pyridine-2,6-diylbis(ethyne-2,1-diyl))bis(4-tert-butylaniline)]",,0.6,5270
